Assays:
HL-60(TB) = experiment: Growth inhibition of human HL-60(TB) cells incubated for 48 hrs by sulforhodamine B assay; format: functional, cell-based; conditions: HL-60, 48 h
SW-620 = experiment: Growth inhibition of human SW620 cells incubated for 48 hrs by sulforhodamine B assay; format: functional, cell-based; conditions: SW-620, 48 h
SNB-75 [1] = experiment: Growth inhibition of human SNB75 cells incubated for 48 hrs by sulforhodamine B assay; format: functional, cell-based; conditions: SNB-75, 48 h
IGROV-1 = experiment: Growth inhibition of human IGROV1 cells incubated for 48 hrs by sulforhodamine B assay; format: functional, cell-based; conditions: IGROV-1, 48 h
MCF7 = experiment: Growth inhibition of human MCF7 cells incubated for 48 hrs by sulforhodamine B assay; format: functional, cell-based; conditions: MCF7, 48 h
A549 = experiment: Growth inhibition of human A549/ATCC cells assessed as cell growth at 0.01 uM incubated for 48 hrs by sulforhodamine B assay relative to control; format: functional; conditions: A549, 48 h, read-out: Activity
NCI-H23 [2] = experiment: Growth inhibition of human NCI-H23 cells assessed as cell growth at 0.01 uM incubated for 48 hrs by sulforhodamine B assay relative to control; format: functional; conditions: NCI-H23, 48 h, read-out: Activity
NCI-H322M [3] = experiment: Growth inhibition of human NCI-H322M cells assessed as cell growth at 0.01 uM incubated for 48 hrs by sulforhodamine B assay relative to control; format: functional; conditions: read-out: Activity
HCT-15 = experiment: Growth inhibition of human HCT15 cells assessed as cell growth at 0.01 uM incubated for 48 hrs by sulforhodamine B assay relative to control; format: functional; conditions: HCT-15, 48 h, read-out: Activity
SF-295 = experiment: Growth inhibition of human SF295 cells assessed as cell growth at 0.01 uM incubated for 48 hrs by sulforhodamine B assay relative to control; format: functional; conditions: SF-295, 48 h, read-out: Activity
SNB-75 [4] = experiment: Growth inhibition of human SNB75 cells assessed as cell growth at 0.01 uM incubated for 48 hrs by sulforhodamine B assay relative to control; format: functional; conditions: SNB-75, 48 h, read-out: Activity
UACC-257 = experiment: Growth inhibition of human UACC257 cells assessed as cell growth at 0.01 uM incubated for 48 hrs by sulforhodamine B assay relative to control; format: functional; conditions: UACC-257, 48 h, read-out: Activity
SK-OV-3 = experiment: Growth inhibition of human SKOV3 cells assessed as cell growth at 0.01 uM incubated for 48 hrs by sulforhodamine B assay relative to control; format: functional; conditions: SK-OV-3, 48 h, read-out: Activity
CAKI-1 [5] = experiment: Growth inhibition of human Caki1 cells assessed as cell growth at 0.01 uM incubated for 48 hrs by sulforhodamine B assay relative to control; format: functional; conditions: CAKI-1, 48 h, read-out: Activity
MDA-MB-231 = experiment: Growth inhibition of human MDA-MB-231 cells assessed as cell growth at 0.01 uM incubated for 48 hrs by sulforhodamine B assay relative to control; format: functional; conditions: MDA-MB-231, 48 h, read-out: Activity
CCRF-CEM = experiment: Growth inhibition of human CCRF-CEM cells assessed as cell growth at 0.1 uM incubated for 48 hrs by sulforhodamine B assay relative to control; format: functional; conditions: read-out: Activity
SR [6] = experiment: Growth inhibition of human SR cells assessed as cell growth at 0.1 uM incubated for 48 hrs by sulforhodamine B assay relative to control; format: functional; conditions: read-out: Activity
NCI-H322M [7] = experiment: Growth inhibition of human NCI-H322M cells assessed as cell growth at 0.1 uM incubated for 48 hrs by sulforhodamine B assay relative to control; format: functional; conditions: read-out: Activity
HCC 2998 = experiment: Growth inhibition of human HCC2998 cells assessed as cell growth at 0.1 uM incubated for 48 hrs by sulforhodamine B assay relative to control; format: functional; conditions: HCC 2998, 48 h, read-out: Activity
SK-MEL-28 = experiment: Growth inhibition of human SK-MEL-28 cells assessed as cell growth at 0.1 uM incubated for 48 hrs by sulforhodamine B assay relative to control; format: functional; conditions: SK-MEL-28, 48 h, read-out: Activity
MDA-MB-468 = experiment: Growth inhibition of human MDA-MB-468 cells assessed as cell growth at 0.1 uM incubated for 48 hrs by sulforhodamine B assay relative to control; format: functional; conditions: MDA-MB-468, 48 h, read-out: Activity
SR [8] = experiment: Growth inhibition of human SR cells assessed as cell growth at 1 uM incubated for 48 hrs by sulforhodamine B assay relative to control; format: functional; conditions: read-out: Activity
SNB-19 = experiment: Growth inhibition of human SNB19 cells assessed as cell growth at 1 uM incubated for 48 hrs by sulforhodamine B assay relative to control; format: functional; conditions: SNB-19, 48 h, read-out: Activity
786-0 = experiment: Growth inhibition of human 786-0 cells assessed as cell growth at 1 uM incubated for 48 hrs by sulforhodamine B assay relative to control; format: functional; conditions: 786-0, 48 h, read-out: Activity
UO-31 = experiment: Growth inhibition of human UO31 cells assessed as cell growth at 1 uM incubated for 48 hrs by sulforhodamine B assay relative to control; format: functional; conditions: UO-31, 48 h, read-out: Activity
NCI-H23 [9] = experiment: Growth inhibition of human NCI-H23 cells assessed as cell growth at 100 uM incubated for 48 hrs by sulforhodamine B assay relative to control; format: functional; conditions: NCI-H23, 48 h, read-out: Activity
COLO 205 = experiment: Growth inhibition of human COLO205 cells assessed as cell growth at 100 uM incubated for 48 hrs by sulforhodamine B assay relative to control; format: functional; conditions: COLO 205, 48 h, read-out: Activity
CAKI-1 [10] = experiment: Growth inhibition of human Caki1 cells assessed as cell growth at 100 uM incubated for 48 hrs by sulforhodamine B assay relative to control; format: functional; conditions: CAKI-1, 48 h, read-out: Activity
RXF 393 = experiment: Growth inhibition of human RXF393 cells assessed as cell growth at 100 uM incubated for 48 hrs by sulforhodamine B assay relative to control; format: functional; conditions: RXF 393, 48 h, read-out: Activity
T47D = experiment: Growth inhibition of human T47D cells assessed as cell growth at 100 uM incubated for 48 hrs by sulforhodamine B assay relative to control; format: functional; conditions: read-out: Activity
[11] = read-out: LC50 (the source's name)
[12] = read-out: pLC50 (the source's name) (converted)

O=C(Nc1cccc(-n2cc(-c3ccncc3)c(-c3cc(O)cc(Cl)c3)n2)c1)Nc1ccc(Cl)c(Cl)c1
GI50 (HL-60(TB); read-out: GI50): 3.02 µM
LC50 (HL-60(TB); read-out: LC50): > 100 µM
GI50 (HL-60(TB); read-out: pGI50 (converted)): 3.02 µM
LC50 (HL-60(TB); read-out: pLC50 (converted)): > 100 µM
GI50 (SW-620; read-out: GI50): 3.22 µM
LC50 (SW-620; read-out: LC50): > 100 µM
TGI (SW-620; read-out: TGI): 99.7 µM
GI50 (SW-620; read-out: pGI50 (converted)): 3.24 µM
LC50 (SW-620; read-out: pLC50 (converted)): > 100 µM
TGI (SW-620; read-out: pTGI (converted)): 10 µM
GI50 (SNB-75 [1]; read-out: GI50): 1.38 µM
CC50 (SNB-75 [1]; [11]): > 100 µM
TGI (SNB-75 [1]; read-out: TGI): 48.2 µM
GI50 (SNB-75 [1]; read-out: pGI50 (converted)): 1.38 µM
CC50 (SNB-75 [1]; [12]): > 100 µM
TGI (SNB-75 [1]; read-out: pTGI (converted)): 4.79 µM
GI50 (IGROV-1; read-out: GI50): 2.56 µM
CC50 (IGROV-1; [11]): > 100 µM
TGI (IGROV-1; read-out: TGI): 92.3 µM
GI50 (IGROV-1; read-out: pGI50 (converted)): 2.88 µM
CC50 (IGROV-1; [12]): > 100 µM
TGI (IGROV-1; read-out: pTGI (converted)): 9.33 µM
GI50 (MCF7; read-out: GI50): 2.51 µM
LC50 (MCF7; read-out: LC50): > 100 µM
TGI (MCF7; read-out: TGI): 97.4 µM
GI50 (MCF7; read-out: pGI50 (converted)): 2.82 µM
LC50 (MCF7; read-out: pLC50 (converted)): > 100 µM
TGI (MCF7; read-out: pTGI (converted)): 9.77 µM
growth at 0.01 µM (A549): 96%
growth at 0.01 µM (NCI-H23 [2]): 96%
growth at 0.01 µM (NCI-H322M [3]): 52%
growth at 0.01 µM (HCT-15): 59%
growth at 0.01 µM (SF-295): 92%
growth at 0.01 µM (SNB-75 [4]): 94%
growth at 0.01 µM (UACC-257): 96%
growth at 0.01 µM (SK-OV-3): 108%
growth at 0.01 µM (CAKI-1 [5]): 100%
growth at 0.01 µM (MDA-MB-231): 94%
growth at 0.1 µM (CCRF-CEM): 95%
growth at 0.1 µM (SR [6]): 90%
growth at 0.1 µM (NCI-H322M [7]): 88%
growth at 0.1 µM (HCC 2998): 110%
growth at 0.1 µM (SK-MEL-28): 97%
growth at 0.1 µM (MDA-MB-468): 85%
growth at 1 µM (SR [8]): 62%
growth at 1 µM (SNB-19): 90%
growth at 1 µM (786-0): 71%
growth at 1 µM (UO-31): 78%
growth at 100 µM (NCI-H23 [9]): -35%
growth at 100 µM (COLO 205): -88%
growth at 100 µM (CAKI-1 [10]): -12%
growth at 100 µM (RXF 393): -52%
growth at 100 µM (T47D): -39%

COc1cc(Cl)cc(-c2nn(-c3cccc(NC(=O)c4cccc(C(F)(F)F)c4)c3)cc2-c2ccncc2)c1
GI50 (HL-60(TB); read-out: GI50): 4.5 µM
LC50 (HL-60(TB); read-out: LC50): > 100 µM
TGI (HL-60(TB); read-out: TGI): > 100 µM
GI50 (HL-60(TB); read-out: pGI50 (converted)): 45.7 µM
LC50 (HL-60(TB); read-out: pLC50 (converted)): > 100 µM
TGI (HL-60(TB); read-out: pTGI (converted)): > 100 µM
GI50 (SW-620; read-out: GI50): > 100 µM
LC50 (SW-620; read-out: LC50): > 100 µM
TGI (SW-620; read-out: TGI): > 100 µM
GI50 (SW-620; read-out: pGI50 (converted)): > 100 µM
LC50 (SW-620; read-out: pLC50 (converted)): > 100 µM
TGI (SW-620; read-out: pTGI (converted)): > 100 µM
GI50 (SNB-75 [1]; read-out: GI50): 5.52 µM
CC50 (SNB-75 [1]; [11]): > 100 µM
TGI (SNB-75 [1]; read-out: TGI): > 100 µM
GI50 (SNB-75 [1]; read-out: pGI50 (converted)): 7.08 µM
CC50 (SNB-75 [1]; [12]): > 100 µM
TGI (SNB-75 [1]; read-out: pTGI (converted)): > 100 µM
GI50 (IGROV-1; read-out: GI50): > 100 µM
CC50 (IGROV-1; [11]): > 100 µM
TGI (IGROV-1; read-out: TGI): > 100 µM
GI50 (IGROV-1; read-out: pGI50 (converted)): > 100 µM
CC50 (IGROV-1; [12]): > 100 µM
TGI (IGROV-1; read-out: pTGI (converted)): > 100 µM
GI50 (MCF7; read-out: GI50): 4.17 µM
LC50 (MCF7; read-out: LC50): > 100 µM
TGI (MCF7; read-out: TGI): > 100 µM
GI50 (MCF7; read-out: pGI50 (converted)): 4.17 µM
LC50 (MCF7; read-out: pLC50 (converted)): > 100 µM
TGI (MCF7; read-out: pTGI (converted)): > 100 µM
growth at 0.01 µM (A549): 98%
growth at 0.01 µM (NCI-H23 [2]): 93%
growth at 0.01 µM (NCI-H322M [3]): 69%
growth at 0.01 µM (HCT-15): 56%
growth at 0.01 µM (SF-295): 98%
growth at 0.01 µM (SNB-75 [4]): 90%
growth at 0.01 µM (UACC-257): 91%
growth at 0.01 µM (SK-OV-3): 102%
growth at 0.01 µM (CAKI-1 [5]): 95%
growth at 0.01 µM (MDA-MB-231): 102%
growth at 0.1 µM (CCRF-CEM): 92%
growth at 0.1 µM (SR [6]): 54%
growth at 0.1 µM (NCI-H322M [7]): 95%
growth at 0.1 µM (HCC 2998): 104%
growth at 0.1 µM (SK-MEL-28): 97%
growth at 0.1 µM (MDA-MB-468): 85%
growth at 1 µM (SR [8]): 58%
growth at 1 µM (SNB-19): 100%
growth at 1 µM (786-0): 56%
growth at 1 µM (UO-31): 54%
growth at 100 µM (NCI-H23 [9]): 27%
growth at 100 µM (COLO 205): 45%
growth at 100 µM (CAKI-1 [10]): 21%
growth at 100 µM (RXF 393): 19%
growth at 100 µM (T47D): 15%

— ChEMBL document CHEMBL4308841, “Synthesis, in vitro antiproliferative activity, and kinase inhibitory effects of pyrazole-containing diarylureas and diarylamides” (Eur J Med Chem, 2018)
